# Laboratory results taken from patent US8765717B2 (Monte Verde S.A., priority 2008, dated 2014).
# What was measured:
# [1] = system: patients suffering from primary hip or knee arthritis (I, II or III); test: Clinical trial: Lequesne algo-functional index of severity; format: in vivo, humans; details: for Decrease in the Lequesne scale in the 25% of patients with enhanced recovery / Decrease in the Lequesne scale in the 25% of patients with enhanced recovery (percent): 25% of the patients
# Experimental: (§1) Data from a clinical trial with humans is provided herein. The trial was performed with three arms, at random and blind, of patients suffering from different degrees of primary hip or knee arthritis (I, II or III). […] Pain and joint function performance was checked every fifteen days by using the pain VAS and the Lequesne algo-functional index of severity. The VAS assesses the pain in the knee by a visual scale of 100 mm with a total of 10 divisions wherein 0 means no pain and 10 means the deepest pain. […] The severity index is given by the addition of the scores obtained in each item, wherein 24 is the maximum possible score. The higher the index, the more severe is the clinical picture.
# [2] = system: patients suffering from primary hip or knee arthritis (I, II or III); test: Clinical trial: pain VAS; format: in vivo, humans; details: check-up visits every fifteen days
# Experimental: as §1
# [3] = 37° C.; cited from earlier work
# [4] = patients in clinical trials; cited from earlier work
Structure (SMILES),Decrease in the Lequesne scale in the 25% of patients with enhanced recovery ([1]; 90 days oral treatment),Decrease in the Lequesne scale in the 25% of patients with enhanced recovery (percent) ([1]; 90 days oral treatment),"Average improvement in the Lequesne index in 50% of the patients ([1]; 50% of the patients, 90 days oral treatment)","Lequesne scale (Algo-functional index) average decrease ([1]; 90 days, single daily oral dose, 1,500 mg glucosamine sulphate and/or 15 mg meloxicam)",Time after starting treatment at which VAS value showed the highest reduction [2],pKa [3],"Occurrence of adverse gastrointestinal events (bleeding, perforation or ulcers) versus other nonsteroidal anti-inflammatory drugs [4]"
"N[C@H]1C(O)O[C@H](CO)[C@@H](O)[C@@H]1O (stereo partly drawn) [glucosamine, 2-amin-2 desoxy-alpha-D-glucose]",3.75 scores,32%,1.5 scores,11%,30 days,6.91,–
"Cc1cnc(NC(=O)C2=C(O)c3ccccc3S(=O)(=O)N2C)s1 [meloxicam, (8E)-8-[hydroxy-[(5-methyl-1,3-thiazol-2-yl)amino]methylidene]-9-methyl-10,10-dioxo-10λ^6-thia-9-azabicyclo[4.4.0]deca-1,3,5-trien-7-one]",4.5 scores,38%,–,–,15 days,–,less frequent
